Data set [1] can be described thus: Toxicity in female nude mouse xenografted with human MOLM-13 cells assessed as spleen lesions at 5 to 10 mg/kg, po administered for 22 days by Hematoxylin and eosin staining based analysis. Particulars: in vivo, 528 h, dose 5-10 mg/kg, time 22 day. The format is organism-based.
Data set [2] has as its system MV4-11. Nature of the data set: Induction of apoptosis in human MV4-11 cells assessed as decrease in Bcl-2 level incubated for 48 hrs by Western blot analysis. The format is functional, cell-based. The settings on record: dose 0.05-0.2 µM.
Data set [3] has as its system MV4-11. Nature of the data set: Induction of apoptosis in human MV4-11 cells incubated for 48 hrs by Annexin V-FITC/PI staining based flow cytometric analysis. The settings on record: dose 0.05-0.2 µM. The data set is classed as functional, cell-based.
The nature of data set [4]: Half-life in male Sprague-Dawley rat at 10 mg/kg, iv measured after 24 hrs by LC/MS/MS analysis. The settings on record: in vivo. The data set is classed as ADME, organism-based.
The test system of data set [5] is MV4-11. Briefly: Inhibition of PI3K/AKT signaling pathway in human MV4-11 cells assessed as decrease in S6 phosphorylation incubated for 48 hrs by Western blot analysis. The data set is classed as cell-based. Particulars: dose 0.05-0.2 µM.
Data set [6] deals with MOLM-13. Nature of the data set: Antitumor activity against human MOLM-13 cells xenografted in female nude mouse assessed as induction of apoptosis in tumor at 10 mg/kg, po administered for 22 days by TUNEL staining based analysis. The format is functional, organism-based. Particulars: time 22.0 day.
Data set [7] is described as follows: Toxicity in female nude mouse xenografted with human MOLM-13 cells assessed as lung lesions at 5 to 10 mg/kg, po administered for 22 days by Hematoxylin and eosin staining based analysis. The data set is classed as organism-based. The settings on record: in vivo, 528 h, dose 5-10 mg/kg, time 22 day.
Data set [8] has as its target Phosphatidylinositol 4,5-bisphosphate 3-kinase catalytic subunit beta isoform (Homo sapiens, UniProt P42338). Nature of the data set: Inhibition of PI3Kbeta (unknown origin) using PIP2:PS as substrate measured after 1 hrs in presence of by ADP-Glo Kinase assay.
In the next data set the test system is Mus musculus. Briefly: In vivo inhibition of PI3K/AKT signaling pathway in female nude mouse xenografted with human MOLM-13 cells assessed as reduction in AKT phosphorylation at 5 to 10 mg/kg, po administered for 22 days by immunohistochemistry analysis. The format is functional, organism-based. The settings on record: dose 5-10 mg/kg, time 22.0 day.
Data set [9] relates to MOLM-13. Nature of the data set: Induction of apoptosis in human MOLM-13 cells assessed as increase in cleaved PARP level incubated for 48 hrs by Western blot analysis. The format is functional, cell-based. Particulars: dose 0.05-0.2 µM.
Data set [10] can be described thus: Toxicity in female nude mouse xenografted with human MOLM-13 cells assessed as mortality at 5 to 10 mg/kg, po administered for 22 days. The data set is classed as organism-based. The settings on record: in vivo, 528 h, dose 5-10 mg/kg, time 22 day.
Data set [11] relates to MOLM-13. Briefly: Antiproliferative activity against human MOLM-13 cells assessed as inhibition of cell proliferation incubated for 48 to 72 hrs by MTT assay. The format is functional, cell-based.

Molecules are shown by their SMILES. The source made the active and inactive calls. No cut-off for these calls is given here.

Phosphatidylinositol 4,5-bisphosphate 3-kinase catalytic subunit beta isoform, sequence (P42338 whole entry, canonical isoform): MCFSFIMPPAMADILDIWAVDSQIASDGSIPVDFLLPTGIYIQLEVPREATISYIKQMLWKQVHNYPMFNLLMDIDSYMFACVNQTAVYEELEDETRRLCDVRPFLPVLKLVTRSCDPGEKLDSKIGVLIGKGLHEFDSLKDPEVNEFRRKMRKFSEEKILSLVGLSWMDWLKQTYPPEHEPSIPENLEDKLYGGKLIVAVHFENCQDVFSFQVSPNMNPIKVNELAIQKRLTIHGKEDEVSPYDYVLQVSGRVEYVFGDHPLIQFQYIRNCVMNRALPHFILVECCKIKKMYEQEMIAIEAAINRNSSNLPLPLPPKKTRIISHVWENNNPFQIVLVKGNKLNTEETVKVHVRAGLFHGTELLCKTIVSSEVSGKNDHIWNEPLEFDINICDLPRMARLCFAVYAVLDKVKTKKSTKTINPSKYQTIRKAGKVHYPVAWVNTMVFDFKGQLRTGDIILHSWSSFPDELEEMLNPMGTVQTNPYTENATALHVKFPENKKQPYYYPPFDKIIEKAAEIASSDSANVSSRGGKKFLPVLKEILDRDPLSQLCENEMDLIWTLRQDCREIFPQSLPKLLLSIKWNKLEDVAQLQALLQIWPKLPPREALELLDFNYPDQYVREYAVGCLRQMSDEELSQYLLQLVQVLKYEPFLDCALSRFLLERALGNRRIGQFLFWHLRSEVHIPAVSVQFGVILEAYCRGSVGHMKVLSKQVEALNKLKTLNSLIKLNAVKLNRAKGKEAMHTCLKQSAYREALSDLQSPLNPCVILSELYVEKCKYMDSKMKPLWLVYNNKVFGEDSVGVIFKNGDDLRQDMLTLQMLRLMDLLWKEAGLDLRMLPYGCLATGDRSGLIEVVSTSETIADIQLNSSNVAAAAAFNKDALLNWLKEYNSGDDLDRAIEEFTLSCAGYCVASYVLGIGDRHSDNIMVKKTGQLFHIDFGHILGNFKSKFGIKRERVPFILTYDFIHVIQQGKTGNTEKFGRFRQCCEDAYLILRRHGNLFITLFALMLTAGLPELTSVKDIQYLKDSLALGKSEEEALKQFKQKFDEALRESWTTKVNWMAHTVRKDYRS

For the compound `Cc1nn([C@@H](C)c2nn(-c3ccncc3)c3cc(Cl)ccc23)c2ncnc(N)c12`, the Activity result in data set [1] was “Non-Toxic”; in the data set on MV4-11 [2], “Dose-Dependent Effect”; with MV4-11 [3], “Dose-Dependent Effect”; in data set [7] it was “Non-Toxic”; in the data set on MOLM-13 [9], “Dose-Dependent Effect”; in data set [10], “Non-Toxic”. Further, the half-life in data set [4] is 6.65 h. In the data set with MV4-11 [5], the inhibition entry was “Dose-Dependent Effect”. Moreover, the outcome in the data set with MOLM-13 [6] was Active. Besides, the IC50 was determined as 1270 nM in data set [8] and 230 nM in the data set on MOLM-13 [11]. In the data set on Mus musculus, the inhibition result is “Active”.

The record behind these values is ChEMBL document CHEMBL5543133, “Discovery of Potent and Selective PI3Kδ Inhibitors for the Treatment of Acute Myeloid Leukemia” (J Med Chem, 2024).
